PMC2656214, “A circuit supporting concentration-invariant odor perception in Drosophila” (Journal of Biology, 2009)

What was measured:
Experiment in all cases: G-CaMP calcium imaging of OSN axon terminals
Format in all cases: cell-based
Conditions in all cases: 10^-2 odor dilution in paraffin oil, 1 s pulse
[1] = target: T1, Or82a (Drosophila melanogaster, UniProt P82986)
T1 construct: native receptor in Or82a olfactory sensory neuron of larva; G-CaMP1.3 calcium imaging at axon terminals; with Odorant receptor coreceptor
T1 sequence (P82986 1-385): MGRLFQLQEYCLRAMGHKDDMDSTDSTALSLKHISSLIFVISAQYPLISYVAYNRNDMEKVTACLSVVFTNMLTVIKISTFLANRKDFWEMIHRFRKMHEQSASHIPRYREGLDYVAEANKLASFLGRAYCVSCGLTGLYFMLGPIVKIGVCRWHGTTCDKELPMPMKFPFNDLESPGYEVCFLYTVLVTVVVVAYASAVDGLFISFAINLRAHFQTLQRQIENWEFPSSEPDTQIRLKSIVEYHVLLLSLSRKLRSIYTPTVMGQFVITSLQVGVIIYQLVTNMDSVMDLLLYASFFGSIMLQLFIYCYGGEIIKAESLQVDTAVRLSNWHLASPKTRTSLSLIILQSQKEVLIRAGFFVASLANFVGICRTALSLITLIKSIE
T1 sequence (Q9VNB5 1-486 partner): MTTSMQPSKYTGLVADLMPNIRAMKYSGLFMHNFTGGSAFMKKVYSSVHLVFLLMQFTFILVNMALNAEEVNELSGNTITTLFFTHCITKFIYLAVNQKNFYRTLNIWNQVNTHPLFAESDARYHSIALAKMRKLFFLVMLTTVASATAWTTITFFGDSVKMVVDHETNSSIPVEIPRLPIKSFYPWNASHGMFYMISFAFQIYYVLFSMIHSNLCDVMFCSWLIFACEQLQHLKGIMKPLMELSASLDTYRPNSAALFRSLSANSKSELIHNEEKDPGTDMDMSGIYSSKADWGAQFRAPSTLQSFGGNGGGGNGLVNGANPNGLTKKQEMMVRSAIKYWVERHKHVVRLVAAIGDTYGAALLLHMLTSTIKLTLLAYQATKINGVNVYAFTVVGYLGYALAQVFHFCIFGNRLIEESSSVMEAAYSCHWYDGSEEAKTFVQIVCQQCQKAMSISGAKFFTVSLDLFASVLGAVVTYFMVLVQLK

[2] = target: T2, Or35a (Drosophila melanogaster, UniProt Q9V3Q2)
T2 construct: native receptor in Or35a olfactory sensory neuron of larva; G-CaMP1.3 calcium imaging at axon terminals; with Odorant receptor coreceptor
T2 sequence (Q9V3Q2 1-409): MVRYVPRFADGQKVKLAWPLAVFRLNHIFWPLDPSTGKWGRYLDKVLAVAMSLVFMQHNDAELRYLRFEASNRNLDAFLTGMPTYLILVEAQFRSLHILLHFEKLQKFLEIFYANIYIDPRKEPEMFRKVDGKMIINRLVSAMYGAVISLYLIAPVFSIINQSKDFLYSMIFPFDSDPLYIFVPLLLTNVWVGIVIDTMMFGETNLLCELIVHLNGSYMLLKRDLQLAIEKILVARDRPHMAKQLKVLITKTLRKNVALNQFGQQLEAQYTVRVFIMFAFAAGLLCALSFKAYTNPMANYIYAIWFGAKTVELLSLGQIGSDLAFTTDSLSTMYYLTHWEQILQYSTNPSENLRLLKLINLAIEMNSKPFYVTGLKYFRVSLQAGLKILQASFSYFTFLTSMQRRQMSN
T2 sequence (Q9VNB5 1-486 partner): T1 sequence (Q9VNB5 1-486 partner)

[3] = target: T3, Or42a (Drosophila melanogaster, UniProt Q9V9I2)
T3 construct: native receptor in Or42a olfactory sensory neuron of larva; G-CaMP calcium imaging; with Odorant receptor coreceptor
T3 sequence (Q9V9I2 1-406): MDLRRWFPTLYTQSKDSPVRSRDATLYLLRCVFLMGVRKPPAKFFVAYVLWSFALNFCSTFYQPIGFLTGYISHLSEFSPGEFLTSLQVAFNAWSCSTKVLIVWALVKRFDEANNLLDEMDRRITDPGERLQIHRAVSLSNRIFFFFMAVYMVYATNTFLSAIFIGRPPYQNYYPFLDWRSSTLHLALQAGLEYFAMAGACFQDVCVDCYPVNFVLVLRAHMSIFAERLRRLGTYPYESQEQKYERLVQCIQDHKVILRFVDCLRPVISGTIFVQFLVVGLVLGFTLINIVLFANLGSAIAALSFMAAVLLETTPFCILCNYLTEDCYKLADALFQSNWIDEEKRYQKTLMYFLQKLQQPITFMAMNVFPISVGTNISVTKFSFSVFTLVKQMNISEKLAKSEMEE
T3 sequence (Q9VNB5 1-486 partner): T1 sequence (Q9VNB5 1-486 partner)

SMILES	G-CaMP calcium imaging of OSN axon terminals [2]	also measured
CC(=O)OC/C=C(\C)CCC=C(C)C [geranyl acetate]	–	G-CaMP calcium imaging of OSN axon terminals [1]: Or82a-expressing neurons responded only to geranyl acetate
CCCCCCOC(C)=O [hexyl acetate]	hexyl acetate and cyclohexanone selectively activated only Or35a	–
O=C1CCCCC1 [cyclohexanone]	hexyl acetate and cyclohexanone selectively activated only Or35a	–
CCCCCC(C)=O [2-Heptanone]	–	G-CaMP calcium imaging of OSN axon terminals [3]: 2-Heptanone, which selectively activates Or42a but not Or42b OSNs
